From PMC6677754, “In silico design and optimization of selective membranolytic anticancer peptides” (Scientific Reports, 2019)
Peptide text beside a SMILES is read from it.

Key:
[1] = system: A549 lung adenocarcinoma cell line; test: Cell viability assay (MTT); type: cell-based, human; details: Table S2; MTT, 24 h; mean ± sd; N = 2 independent measurements with six technical replicates each (Figs S6-S8); read-out: A549 EC50 /µM
Method: (§1) 10% fetal bovine serum and 1% penicillin-streptomycin (Thermo Fisher Scientific, Waltham, MA, USA). The cultures were kept at 37°C in a 5% CO2 atmosphere incubator (Thermo Fisher Scientific, Waltham, MA, USA) and split every two to three days to new culture flasks. Cells no older than 20 passages were used for experiments.
(§2) For splitting, the cell culture media was aspirated, the cells were washed with 0.01 M phosphate buffered saline (PBS, Gibco, Thermo Fisher Scientific, Waltham, MA, USA) and trypsin-EDTA (trypsin - ethylene diamine tetraacetic acid, Fisher scientific, UK) was added to the cell layer to detach them from the flask surface. After incubation for 2 min at 37°C, cells were resuspended with an equal volume of DMEM media and centrifuged at 310 g for 5 min at 4°C. After removal of the supernatant the cells were resuspended in DMEM cell media and split into new cell culture flasks at a 1/3 to 1/5 ratio.
(§3) Determination of the anticancer peptides half effective concentration (EC50) was performed by a 3-(4,5-dimethylthiazol-2-yl)-2,5-diphenyltetrazolium bromide (MTT) assay, as described elsewhere21. Briefly, […] were seeded in each well of a 96-well plate and left to adhere and […]
(§4) sulfoxide (DMSO, Fisher Scientific, UK) at an intermediate concentration of 1 mM. The peptides were then diluted in a 2-fold dilution series starting at 100 μM with DMEM culture media. Cells were incubated with the peptide solutions for 24 h. After this time, the cell media was removed and the cells were incubated for 1 h with a 0.5 mg mL−1 MTT solution to allow enough time for formazan crystal formation (Sigma Aldrich, Steinheim, Germany). The supernatant was removed and 100 μL of DMSO were added into each well to resuspend the formazan crystals.
(§5) After manually shaking the plates to completely dissolve the crystals, the absorbance was measured at 540 nm in a Tecan Infinity M1000 spectrophotometer. The cell viability was determined based on the quantification of the color intensity in each culture well, considering the absorbance obtained by the control media without peptides as a 100% survival. The resultant sigmoidal curves were analyzed with the drc22 R package using a log-logistic model

[2] = system: MCF7 breast adenocarcinoma cell line; test: Cell viability assay (MTT); type: cell-based, human; details: Table S2, 24 h, mean ± sd, N = 2 independent measurements with six technical replicates each (Figs S6-S8)
Method: as §1, §2, §3, §4, §5

[3] = system: noncancer HDMEC primary cells (human dermal microvascular endothelial cells); test: Cell viability assay (MTT); type: cell-based; details: Table S2; noncancer primary cells; MTT, 24 h; mean ± sd; N = 2 independent measurements with six technical replicates each (Figs S6-S8)
Method: as §1, §2, §3, §4, §5

human erythrocytes = test: Hemolysis assay; type: cell-based; details: red cells of human, 1 h
Method: Human erythrocytes were freshly ordered at the Blutspende Zürich. Erythrocytes were washed 3 times with a […] phosphate buffered saline (PBS, Gibco, Thermo Fisher Scientific, Waltham, MA, USA) solution centrifuging at 800 g for 10 min or until the supernatant appeared clear to remove the blood plasma. A 5% v/v erythrocytes : PBS solution was prepared for direct use. For HC50 determination, peptides were dissolved in PBS at an intermediate concentration of 1 mM. A dilution series of the peptide from 200 to 6.25 μM was plated in a round-bottomed 96-well plate in triplicates, with a volume of 50 μL per well. PBS buffer and a solution of 0.1% Triton-X-100 (Fisher Chemical, Loughborough, UK) in PBS were employed as negative and positive controls, respectively. 50 μL of the 5% erythrocyte solution were added in each well and the plates were incubated at 37°C for 1 h. After this time, 100 μL PBS were added to each well and plates were centrifuged at 800 g for 10 min. 100 μL of the supernatant were transferred to a flat-bottomed 96-well plate and the absorbance was measured at 540 nm in a Tecan Infinity M1000 spectrophotometer plate reader. The hemolysis percentage was calculated, considering the absorbance values of the Triton and PBS wells as 100% and 0% hemolysis, respectively.
The resultant sigmoidal curves were analyzed with the drc22 R package using a log-logistic model with 3 fixed parameters to obtain the HC50 values. […]
NCI-60 screening procedure […]
Each peptide was tested in a 5-concentration assay, starting at 10^-4 M and diluting 10-fold to the lowest 10^-8 M concentration. The peptides were incubated for 48 h and the cell concentration was assayed by using the sulforhodamine B assay25 and optical density measurements. The growth inhibition (GI50) value24, measures the growth inhibitory power of the drug agent. The GI50 value is the concentration of the test drug for which the condition in Eq. S1 is met, where T is the optical density of the test well after a 48-h exposure to the peptide, T0 the optical density before applying the peptide drug and C the control optical density of a well where no peptide was applied.

For `CC[C@H](C)[C@H](NC(=O)[C@H](CCCCN)NC(=O)[C@H](CCCCN)NC(=O)[C@@H](NC(=O)[C@@H](NC(=O)[C@@H](N)CCC(N)=O)C(C)C)C(C)C)C(=O)N[C@@H](CCCNC(=N)N)C(=O)N[C@H](C(=O)N[C@@H](Cc1c[nH]c2ccccc12)C(=O)N[C@@H](Cc1ccc(O)cc1)C(=O)N[C@@H](Cc1c[nH]cn1)C(=O)N[C@@H](CCCCN)C(=O)N[C@@H](C)C(=O)N[C@@H](Cc1c[nH]c2ccccc12)C(=O)N[C@@H](Cc1c[nH]cn1)C(=O)N[C@H](C(=O)N[C@@H](CC(C)C)C(=O)NCC(=O)N[C@@H](CCCCN)C(=O)N[C@H](C(N)=O)C(C)C)C(C)C)[C@@H](C)O` [Off2.2.1] (H-QVVKKIRTWYHKAWHVLGKV-NH2), the EC50 [1] was greater than 100 µM, the EC50 [2] was 76 ± 15 µM and the EC50 [3] was 96 ± 7 µM. For the same compound, the “Eryhtr. HC50 /µM” value (human erythrocytes) was greater than 200 µM.

`CC[C@H](C)[C@H](NC(=O)[C@@H](NC(=O)[C@H](Cc1c[nH]cn1)NC(=O)[C@H](Cc1c[nH]c2ccccc12)NC(=O)[C@H](C)NC(=O)[C@H](CCCNC(=N)N)NC(=O)[C@H](CCC(=O)O)NC(=O)[C@H](Cc1ccc(O)cc1)NC(=O)[C@H](Cc1ccc(O)cc1)NC(=O)[C@@H](NC(=O)[C@H](Cc1c[nH]cn1)NC(=O)[C@H](CC(C)C)NC(=O)[C@H](Cc1c[nH]cn1)NC(=O)[C@H](CCCCN)NC(=O)[C@H](CC(C)C)NC(=O)[C@H](Cc1ccccc1)NC(=O)[C@@H](N)CCCNC(=N)N)[C@@H](C)O)C(C)C)C(=O)NCC(=O)N[C@@H](Cc1c[nH]cn1)C(=O)N[C@@H](CC(C)C)C(N)=O` [Off2.8] (H-RFLKHLHTYYERAWHVIGHL-NH2) was tested, and the EC50 [1] was greater than 100 µM, the EC50 [2] was greater than 100 µM and the EC50 [3] was 2 ± 2 µM. The “Eryhtr. HC50 /µM” value (human erythrocytes) was greater than 200 µM.

In the case of `CC[C@H](C)[C@H](NC(=O)[C@@H](NC(=O)[C@H](Cc1c[nH]cn1)NC(=O)[C@H](Cc1ccccc1)NC(=O)[C@H](C)NC(=O)[C@H](CCCCN)NC(=O)[C@H](CCCNC(=N)N)NC(=O)[C@H](Cc1ccc(O)cc1)NC(=O)[C@H](Cc1c[nH]c2ccccc12)NC(=O)[C@@H](NC(=O)[C@H](CCCNC(=N)N)NC(=O)[C@@H](NC(=O)[C@H](CCCCN)NC(=O)[C@H](CCCCN)NC(=O)[C@H](CC(C)C)NC(=O)[C@@H](NC(=O)[C@@H](N)CCC(N)=O)C(C)C)C(C)C)[C@@H](C)O)C(C)C)C(=O)NCC(=O)N[C@@H](CCCCN)C(=O)N[C@H](C(N)=O)C(C)C` [Off2.2.4] (H-QVLKKVRTWYRKAFHVIGKV-NH2), the EC50 [1] is reported as greater than 100 µM, the EC50 [2] is reported as 68 ± 5 µM and the EC50 [3] is reported as greater than 100 µM. For the same compound, the “Eryhtr. HC50 /µM” value (human erythrocytes) was greater than 200 µM.

Work on `CC[C@H](C)[C@H](NC(=O)[C@@H](N)CCCCN)C(=O)N[C@@H](Cc1ccccc1)C(=O)N[C@@H](CCCCN)C(=O)N[C@@H](CCCCN)C(=O)N[C@@H](Cc1ccccc1)C(=O)N[C@@H](CCCCN)C(=O)N[C@@H](CC(=O)O)C(=O)N[C@@H](Cc1c[nH]c2ccccc12)C(=O)N[C@@H](Cc1ccccc1)C(=O)N[C@@H](CCCCN)C(=O)N[C@@H](CCCCN)C(=O)N[C@@H](C)C(=O)N[C@@H](Cc1ccccc1)C(=O)N[C@@H](Cc1c[nH]cn1)C(=O)N[C@H](C(=O)N[C@@H](CC(C)C)C(=O)NCC(=O)N[C@@H](CCCCN)C(=O)N[C@H](C(N)=O)C(C)C)C(C)C` [Off2.5] (H-KIFKKFKDWFKKAFHVLGKV-NH2) yielded an EC50 [1] of 14.8 ± 0.7 µM, an EC50 [2] of 10.4 ± 0.8 µM and an EC50 [3] of 22 ± 1 µM. For the same compound, the “Eryhtr. HC50 /µM” value (human erythrocytes) was greater than 100 µM.

`CC[C@H](C)[C@H](NC(=O)[C@H](CC(C)C)NC(=O)[C@@H](N)CCCNC(=N)N)C(=O)N[C@@H](CCCCN)C(=O)N[C@@H](CCCNC(=N)N)C(=O)N[C@H](C(=O)N[C@@H](CCCCN)C(=O)N[C@H](C(=O)N[C@@H](Cc1c[nH]c2ccccc12)C(=O)N[C@@H](Cc1ccc(O)cc1)C(=O)N[C@@H](CCCNC(=N)N)C(=O)N[C@@H](CCCCN)C(=O)N[C@@H](C)C(=O)N[C@@H](Cc1c[nH]c2ccccc12)C(=O)N[C@@H](CCCCN)C(=O)N[C@H](C(=O)N[C@H](C(=O)NCC(=O)N[C@@H](CCCCN)C(=O)N[C@@H](Cc1ccccc1)C(N)=O)C(C)C)C(C)C)[C@@H](C)O)[C@@H](C)CC` [Off2.7] (H-RLIKRIKTWYRKAWKVVGKF-NH2) showed an EC50 [1] of 15 ± 1 µM, an EC50 [2] of 11.2 ± 0.7 µM and an EC50 [3] of 23 ± 5 µM. The “Eryhtr. HC50 /µM” value (human erythrocytes) was greater than 200 µM.
